From ChEMBL document CHEMBL1154957, “Preparation and in vitro screening of symmetrical bispyridinium cholinesterase inhibitors bearing different connecting linkage-initial study for Myasthenia gravis implications” (Bioorg Med Chem Lett, 2010)
Activity calls are given as the source filed them. The calls are words filed in the database; no cut-off is given here.

Experiments:
[1] = biological target: T1, Acetylcholinesterase (Homo sapiens, UniProt P22303); assay: Inhibition of human erythrocyte AChE after 5 mins by Ellman's method
[2] = biological target: Cholinesterase (Homo sapiens, UniProt P06276); assay: Inhibition of human plasma BChE after 5 mins by Ellman's method; format: cell-free
[3] = biological target: T1, Acetylcholinesterase; assay: Inhibition of human erythrocyte AChE after 5 mins by noncompetitive Lineweaver-Burke plot analysis for enzyme-inhibitor complex
[4] = biological target: T1, Acetylcholinesterase; assay: Inhibition of human erythrocyte AChE after 5 mins by noncompetitive Lineweaver-Burke plot analysis
[5] = biological target: T1, Acetylcholinesterase; assay: Inhibition of human erythrocyte AChE at 0.0000001 mM to 1 mM after 5 mins by Ellman's method

Cholinesterase, sequence (P06276 whole entry): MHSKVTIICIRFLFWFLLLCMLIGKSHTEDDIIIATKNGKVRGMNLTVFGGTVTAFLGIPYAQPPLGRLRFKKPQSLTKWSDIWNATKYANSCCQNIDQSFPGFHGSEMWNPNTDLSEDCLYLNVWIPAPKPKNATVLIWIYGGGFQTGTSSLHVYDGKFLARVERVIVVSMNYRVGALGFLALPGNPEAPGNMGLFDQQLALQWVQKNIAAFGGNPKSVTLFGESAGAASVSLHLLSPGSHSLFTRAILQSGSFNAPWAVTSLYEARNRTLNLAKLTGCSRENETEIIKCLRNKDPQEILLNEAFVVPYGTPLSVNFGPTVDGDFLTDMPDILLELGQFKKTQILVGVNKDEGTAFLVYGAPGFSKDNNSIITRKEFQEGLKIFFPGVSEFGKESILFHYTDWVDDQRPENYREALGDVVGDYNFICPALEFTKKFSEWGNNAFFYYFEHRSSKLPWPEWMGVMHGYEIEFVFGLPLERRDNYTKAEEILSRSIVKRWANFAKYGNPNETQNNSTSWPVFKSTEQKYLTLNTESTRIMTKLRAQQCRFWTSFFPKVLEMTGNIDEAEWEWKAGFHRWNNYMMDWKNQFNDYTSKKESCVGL
T1 sequence (P22303 whole entry): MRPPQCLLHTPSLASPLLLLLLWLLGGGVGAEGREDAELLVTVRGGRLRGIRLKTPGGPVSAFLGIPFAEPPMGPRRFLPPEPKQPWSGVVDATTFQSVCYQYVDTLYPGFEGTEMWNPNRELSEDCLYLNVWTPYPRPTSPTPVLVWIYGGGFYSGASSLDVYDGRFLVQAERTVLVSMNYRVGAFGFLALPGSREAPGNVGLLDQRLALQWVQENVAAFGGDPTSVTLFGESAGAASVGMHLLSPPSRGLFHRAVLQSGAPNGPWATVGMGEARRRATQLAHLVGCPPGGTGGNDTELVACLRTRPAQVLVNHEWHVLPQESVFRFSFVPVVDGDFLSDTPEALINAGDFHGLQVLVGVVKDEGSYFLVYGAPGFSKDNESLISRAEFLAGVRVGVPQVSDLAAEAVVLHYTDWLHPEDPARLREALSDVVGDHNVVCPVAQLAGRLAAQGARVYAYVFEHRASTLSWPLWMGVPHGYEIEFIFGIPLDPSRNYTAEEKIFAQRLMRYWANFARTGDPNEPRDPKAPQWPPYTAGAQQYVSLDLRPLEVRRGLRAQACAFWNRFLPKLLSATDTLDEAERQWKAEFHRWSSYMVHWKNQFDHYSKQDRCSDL

c1cc[n+](CCCCCC[n+]2ccccc2)cc1
IC50 [1]: 63 µM | IC50 [2]: 130 µM

c1cc[n+](CCCC[n+]2ccccc2)cc1
IC50 [1]: 505 µM | IC50 [2]: 9800 µM

c1cc[n+](Cc2cccc(C[n+]3ccccc3)c2)cc1
IC50 [1]: 2360 µM | IC50 [2]: 1380 µM

c1cc[n+](Cc2ccc3ccc(C[n+]4ccccc4)cc3c2)cc1
IC50 [1]: 0.2 µM | Ki [3]: 0.14 µM | Ki [4]: 0.14 µM | IC50 [2]: 0.8 µM

C(=C/C[n+]1ccccc1)/C[n+]1ccccc1
IC50 [1]: 1990 µM | IC50 [2]: 1270 µM

c1cc[n+](CCCCCCC[n+]2ccccc2)cc1
IC50 [1]: 241 µM | IC50 [2]: 78 µM

c1cc[n+](CC[n+]2ccccc2)cc1
inhibition [5]: inactive

c1cc[n+](CCCCC[n+]2ccccc2)cc1
IC50 [1]: 1270 µM | IC50 [2]: 120 µM

c1cc[n+](CCOCC[n+]2ccccc2)cc1
IC50 [1]: 2010 µM | IC50 [2]: 2360 µM

c1cc[n+](Cc2ccc(C[n+]3ccccc3)cc2)cc1
IC50 [1]: 1540 µM | IC50 [2]: 529 µM

c1cc[n+](CCCCCCCC[n+]2ccccc2)cc1
IC50 [1]: 31 µM | IC50 [2]: 29 µM

C(=C\C[n+]1ccccc1)/C[n+]1ccccc1
IC50 [1]: 2290 µM | IC50 [2]: 541 µM

c1cc[n+](C[n+]2ccccc2)cc1
inhibition [5]: inactive

c1cc[n+](CCCCCCCCCCC[n+]2ccccc2)cc1
IC50 [1]: 0.7 µM | Ki [3]: 0.02 µM | Ki [4]: 0.03 µM | IC50 [2]: 7 µM

c1cc[n+](CCCCCCCCCCCC[n+]2ccccc2)cc1
inhibition [5]: inactive

c1cc[n+](COC[n+]2ccccc2)cc1
IC50 [1]: 1770 µM | IC50 [2]: 583 µM

c1cc[n+](CCCCCCCCC[n+]2ccccc2)cc1
IC50 [1]: 2 µM | IC50 [2]: 6 µM

c1cc[n+](Cc2ccccc2C[n+]2ccccc2)cc1
IC50 [1]: 636 µM | IC50 [2]: 345 µM

CN(C)C(=O)Oc1cccc([N+](C)(C)C)c1 [NEOSTIGMINE BROMIDE]
IC50 [2]: 0.8 µM

c1cc[n+](CCC[n+]2ccccc2)cc1
inhibition [5]: inactive
